From US7163931B2, “Compositions of estrogen-cyclodextrin complexes” (Schering Aktiengesellchaft, priority 2000, dated 2007)

Columns and labels:
[1] = Acid dissociation constant (pKa) by photometric titration in aqueous media; assay type: physicochemical
Procedure: The Acid Dissociation Constant of the EE-β-CD complex in aqueous media was determined.
In aqueous solution, the ethinyl estradiol-β-cyclodextrin complex dissociates into its components according to the law of mass action. […] The pKa was measured by a photometric titration method following the guidance given in the Environmental Assessment Technical Handbook.

[2] = assay type: physicochemical
Procedure: The molar content of each degradation products is expressed relatively to the initial molar content of ethinyl estradiol that was added to each formulation. Four formulations as well as the pure ethinyl estradiol and the ethinyl estradiol β-cyclodextrin complex were investigated.

acid dissociation constant pKa [1]	pKa ([1]; acid dissociation constant pKa)	total known degradation products (% of initial content of EE) [2]	Compound
approx. 10.25	10.25 ± 0.04		C#C[C@]1(O)CC[C@H]2[C@@H]3CCc4cc(O)ccc4[C@H]3CC[C@@]21C [EE, ethinyl estradiol]
		0.385 % of initial content of EE	ethinyl estradiol-β-Cyclodextrin complex [EE-β-CD]
